Columns and labels:
Format in all cases: in vivo
[1] = test system: Diabrotica balteata (Corn Root Worm); experiment: Example B4 Diabrotica balteata mortality; settings: 96 h, application rate of 200 ppm, L2 larvae on sprayed maize sprouts, 4 days after infestation
Experimental: Diabrotica Balteata (Corn Root Worm):
Maize sprouts placed onto an agar layer in 24-well microtiter plates were treated with aqueous test solutions prepared from 10,000 ppm DMSO stock solutions by spraying. After drying, the plates were infested with L2 larvae (6 to 10 per well). The samples were assessed for mortality 4 days after infestation.

[2] = test system: Myzus persicae (Green Peach Aphid); experiment: Example B9 Myzus persicae feeding/contact activity; settings: foliar, 144 h, application rate of 200 ppm, mixed-age aphids on sprayed sunflower leaf discs, 6 days after infestation
Experimental: Myzus persicae (Green Peach Aphid): Feeding/Contact Activity
Sunflower leaf discs were placed onto agar in a 24-well microtiter plate and sprayed with aqueous test solutions prepared from 10,000 ppm DMSO stock solutions. After drying, the leaf discs were infested with an aphid population of mixed ages. The samples were assessed for mortality 6 days after infestation.

[3] = test system: Bemisia tabaci (Cotton White Fly); experiment: Example B1 Bemisia tabaci feeding/contact activity; settings: foliar, 144 h, application rate of 200 ppm, adult white flies on sprayed cotton leaf discs, 6 days after incubation
Experimental: Bemisia tabaci (Cotton White Fly): Feeding/Contact Activity
Cotton leaf discs were placed on agar in 24-well microtiter plates and sprayed with aqueous test solutions prepared from 10,000 ppm DMSO stock solutions. After drying the leaf discs were infested with adult white flies. The samples were checked for mortality 6 days after incubation.

[4] = test system: Spodoptera littoralis (Egyptian Cotton Leaf Worm); experiment: Example B14 Spodoptera littoralis anti-feeding activity; settings: foliar, 72 h, application rate of 200 ppm, L1 larvae on sprayed cotton leaf discs, 3 days after infestation, read-out: control (anti-feeding effect)
Experimental: Spodoptera littoralis (Egyptian Cotton Leaf Worm): Anti-Feeding Activity
Cotton leaf discs were placed onto agar in 24-well microtiter plates and sprayed with aqueous test solutions prepared from 10,000 ppm DMSO stock solutions. After drying the leaf discs were infested with five L1 larvae. The samples were assessed for anti-feeding effect in comparison to untreated samples 3 days after infestation. Control of Spodoptera littoralis by a test sample is given when the anti-feedant effect is higher than the untreated sample.

[5] = test system: Plutella xylostella (Diamond Back Moth); experiment: Example B11 Plutella xylostella growth inhibition activity; settings: 120 h, application rate of 200 ppm, L2 larvae on treated artificial diet, 5 days after infestation
Experimental: Plutella xylostella (Diamond Back Moth): Growth Inhibition Activity
24-well microtiter plates with artificial diet were treated with aqueous test solutions prepared from 10,000 ppm DMSO stock solutions by pipetting. After drying, the plates were infested with L2 larvae (10 to 15 per well). The samples were assessed for growth inhibition in comparison to untreated samples 5 days after infestation. Control of Plutella xylostella by a test sample is given when the growth inhibition is higher than the untreated sample.

[6] = test system: Plutella xylostella (Diamond Back Moth); experiment: Example B13 Plutella xylostella mortality and growth inhibition; settings: 120 h, application rate of 200 ppm, L2 larvae on treated artificial diet, 5 days after infestation, read-out: effect in at least one of the two categories (mortality or growth inhibition)
Experimental: Plutella xylostella (Diamond Back Moth)
24-well microtiter plates with artificial diet were treated with aqueous test solutions prepared from 10,000 ppm DMSO stock solutions by pipetting. After drying, the plates were infested with L2 larvae (10 to 15 per well). The samples were assessed for mortality and growth inhibition in comparison to untreated samples 5 days after infestation.

[7] = test system: Spodoptera littoralis (Egyptian Cotton Leaf Worm); experiment: Example B16 Spodoptera littoralis feeding/contact activity; settings: foliar, 72 h, application rate of 200 ppm, L1 larvae on sprayed cotton leaf discs, 3 days after infestation
Experimental: Spodoptera littoralis (Egyptian Cotton Leaf Worm): Feeding/Contact Activity
Cotton leaf discs were placed onto agar in 24-well microtiter plates and sprayed with aqueous test solutions prepared from 10,000 ppm DMSO stock solutions. After drying the leaf discs were infested with five L1 larvae. The samples were assessed for mortality 3 days after infestation.

[8] = test system: Euschistus heros (Neotropical Brown Stink Bug); experiment: Example B7 Euschistus heros feeding/contact activity; settings: 120 h, application rate of 200 ppm, N2 nymphs on sprayed soybean leaves, 5 days after infestation
Experimental: Euschistus heros (Neotropical Brown Stink Bug): Feeding/Contact Activity
Soybean leaves on agar in 24-well microtiter plates were sprayed with aqueous test solutions prepared from 10,000 ppm DMSO stock solutions. After drying the leaves were infested with N2 nymphs. The samples were assessed for mortality 5 days after infestation.

[9] = test system: Euschistus heros (Neotropical Brown Stink Bug); experiment: Example B5 Euschistus heros mortality and growth inhibition; settings: 120 h, application rate of 200 ppm, N2 nymphs on sprayed soybean leaves, 5 days after infestation, read-out: effect in at least one of the two categories (mortality or growth inhibition)
Experimental: Euschistus heros (Neotropical Brown Stink Bug)
Soybean leaves on agar in 24-well microtiter plates were sprayed with aqueous test solutions prepared from 10,000 ppm DMSO stock solutions. After drying the leaves were infested with N2 nymphs. The samples were assessed for mortality and growth inhibition in comparison to untreated samples 5 days after infestation.

[10] = test system: Plutella xylostella (Diamond Back Moth); experiment: Example B12 Plutella xylostella feeding/contact activity; settings: 120 h, application rate of 200 ppm, L2 larvae on treated artificial diet, 5 days after infestation
Experimental: Plutella xylostella (Diamond Back Moth): Feeding/Contact Activity
24-well microtiter plates with artificial diet were treated with aqueous test solutions prepared from 10,000 ppm DMSO stock solutions by pipetting. After drying, the plates were infested with L2 larvae (10 to 15 per well). The samples were assessed for mortality 5 days after infestation.

[11] = test system: Diabrotica balteata (Corn Root Worm); experiment: Example B2 Diabrotica balteata mortality and growth inhibition; settings: 96 h, application rate of 200 ppm, L2 larvae on sprayed maize sprouts, 4 days after infestation, read-out: effect in at least one of the two categories (mortality or growth inhibition)
Experimental: Diabrotica balteata (Corn Root Worm)
Maize sprouts placed onto an agar layer in 24-well microtiter plates were treated with aqueous test solutions prepared from 10,000 ppm DMSO stock solutions by spraying. After drying, the plates were infested with L2 larvae (6 to 10 per well). The samples were assessed for mortality and growth inhibition in comparison to untreated samples 4 days after infestation.

[12] = test system: Myzus persicae (Green Peach Aphid); experiment: Example B10 Myzus persicae systemic activity; settings: 144 h, test rate of 24 ppm, roots of infested pea seedlings in test solution, 6 days
Experimental: Myzus persicae (Green Peach Aphid). Systemic Activity
Roots of pea seedlings infested with an aphid population of mixed ages were placed directly into aqueous test solutions prepared from 10,000 DMSO stock solutions. The samples were assessed for mortality 6 days after placing seedlings into test solutions.

CCS(=O)(=O)c1cc(OCC(F)(F)F)cnc1-c1cn2cnc(SC(F)(F)F)cc2n1 [Compound P1, 2-[3-ethylsulfonyl-5-(2,2,2-trifluoroethoxy)-2-pyridyl]-7-(trifluoromethylsulfanyl)imidazo[1,2-c]pyrimidine]
≥ 80%: mortality at 200 ppm [1] | mortality at 200 ppm [2] | mortality at 200 ppm [3] | pest or weed control at 200 ppm [4] | inhibition at 200 ppm [5] | percent effect (mortality or growth inhibition) at 200 ppm [6] | mortality at 200 ppm [7] | mortality at 200 ppm [8] | percent effect (mortality or growth inhibition) at 200 ppm [9] | mortality at 200 ppm [10] | percent effect (mortality or growth inhibition) at 200 ppm [11]

CCS(=O)(=O)c1cc(OCS(C)(=O)=O)cnc1-c1cn2cnc(C(F)(F)F)cc2n1 [Compound P23, 2-[3-ethylsulfonyl-5-(methylsulfonylmethoxy)-2-pyridyl]-7-(trifluoromethyl)imidazo[1,2-c]pyrimidine]
≥ 80%: mortality at 200 ppm [2] | mortality at 200 ppm [8] | percent effect (mortality or growth inhibition) at 200 ppm [9] | mortality at 24 ppm [12]

CCS(=O)(=O)c1cc(OCC(F)F)cnc1-c1cn2cnc([S+]([O-])C(F)(F)F)cc2n1 (stereo not drawn) [Compound P3, 2-[5-(2,2-difluoroethoxy)-3-ethylsulfonyl-2-pyridyl]-7-(trifluoromethylsulfinyl)imidazo[1,2-c]pyrimidine]
≥ 80%: mortality at 200 ppm [1] | mortality at 200 ppm [2] | inhibition at 200 ppm [5] | percent effect (mortality or growth inhibition) at 200 ppm [6] | mortality at 200 ppm [8] | percent effect (mortality or growth inhibition) at 200 ppm [9] | percent effect (mortality or growth inhibition) at 200 ppm [11]

CCS(=O)(=O)c1cc(OCCSC)cnc1-c1cn2cnc(C(F)(F)F)cc2n1 [Compound P15, 2-[3-ethylsulfonyl-5-(2-methylsulfanylethoxy)-2-pyridyl]-7-(trifluoromethyl)imidazo[1,2-c]pyrimidine]
≥ 80%: mortality at 200 ppm [2] | mortality at 200 ppm [3] | mortality at 200 ppm [8] | percent effect (mortality or growth inhibition) at 200 ppm [9] | mortality at 24 ppm [12]

CCS(=O)(=O)c1cc(OC(C)C)cnc1-c1cn2cnc(SC(F)(F)F)cc2n1 [Compound P2, 2-(3-ethylsulfonyl-5-isopropoxy-2-pyridyl)-7-(trifluoromethylsulfanyl)imidazo[1,2-c]pyrimidine]
≥ 80%: mortality at 200 ppm [1] | pest or weed control at 200 ppm [4] | inhibition at 200 ppm [5] | percent effect (mortality or growth inhibition) at 200 ppm [6] | mortality at 200 ppm [7] | mortality at 200 ppm [8] | percent effect (mortality or growth inhibition) at 200 ppm [9] | mortality at 200 ppm [10] | percent effect (mortality or growth inhibition) at 200 ppm [11]

CCS(=O)(=O)c1cc(OCC(F)(F)F)cnc1-c1cn2cnc(C(F)(F)F)cc2n1 [Compound P6, 2-[3-ethylsulfonyl-5-(2,2,2-trifluoroethoxy)-2-pyridyl]-7-(trifluoromethyl)imidazo[1,2-c]pyrimidine]
≥ 80%: mortality at 200 ppm [1] | mortality at 200 ppm [2] | mortality at 200 ppm [3] | pest or weed control at 200 ppm [4] | inhibition at 200 ppm [5] | percent effect (mortality or growth inhibition) at 200 ppm [6] | mortality at 200 ppm [7] | mortality at 200 ppm [8] | percent effect (mortality or growth inhibition) at 200 ppm [9] | mortality at 24 ppm [12] | mortality at 200 ppm [10] | percent effect (mortality or growth inhibition) at 200 ppm [11]

CCS(=O)(=O)c1cc(OC(F)F)cnc1-c1cn2cnc(C(F)(F)F)cc2n1 [Compound P21, 2-[5-(difluoromethoxy)-3-ethylsulfonyl-2-pyridyl]-7-(trifluoromethyl)imidazo[1,2-c]pyrimidine]
≥ 80%: mortality at 200 ppm [1] | mortality at 200 ppm [2] | mortality at 200 ppm [3] | pest or weed control at 200 ppm [4] | inhibition at 200 ppm [5] | percent effect (mortality or growth inhibition) at 200 ppm [6] | mortality at 200 ppm [7] | mortality at 200 ppm [8] | percent effect (mortality or growth inhibition) at 200 ppm [9] | mortality at 200 ppm [10] | percent effect (mortality or growth inhibition) at 200 ppm [11]

CCS(=O)(=O)c1cc(OC(C)C)cnc1-c1cn2cnc(C(F)(F)F)cc2n1 [Compound P7, 2-(3-ethylsulfonyl-5-isopropoxy-2-pyridyl)-7-(trifluoromethyl)imidazo[1,2-c]pyrimidine]
≥ 80%: mortality at 200 ppm [1] | mortality at 200 ppm [2] | pest or weed control at 200 ppm [4] | inhibition at 200 ppm [5] | percent effect (mortality or growth inhibition) at 200 ppm [6] | mortality at 200 ppm [7] | mortality at 200 ppm [8] | percent effect (mortality or growth inhibition) at 200 ppm [9] | mortality at 200 ppm [10] | percent effect (mortality or growth inhibition) at 200 ppm [11]
